The values below come from patent US10766873B2, “Zuclopenthixol hydrochloride derivatives and Ebselen derivatives as ErbB2 inhibitors” (Centre National de la Recherche Scientifique (CNRS), priority 2016, dated 2020).

Broadly, the EC50 is the concentration that produces a half-maximal response.

Test [1] has as its system EGFR/ErBB2 or ErbB3/ErbB2 heterodimers-dependent signalling pathways. Kind of test: Ligand-dependent ErbB2 activation (EGF or HRG) in HBMECs, western blot. The format is cell-based. Particulars: pre-treatment 1 h or 24 h. The procedure: In physiological conditions, ErbB2 activation occurs in heterodimer with the other ErbB family members, such as the EGFR in response to EGF stimulation or ErbB3 in response to heregulin (HRG) stimulation. We therefore addressed whether ZU, EB1 and their derivatives also affected the ligand-dependent physiological ErbB2 activation.
16 h-starved HBMECs cells were pre-treated or not for 1 h or 24 h with ZU, […] and their derivatives or AG1478 before EGF (50 ng/mL) or HRG1β (100 ng/mL) stimulation for 5 minutes. The activation of EGFR/ErBB2 or ErbB3/ErbB2 heterodimers-dependent signalling pathways was then analysed by western blot experiments using pAkt, Akt, pERK, ERK or 4G10 antibodies.

The target of a further test is ErbB2 (Homo sapiens, UniProt P04626). As to the kind of experiment: ErbB2 phosphorylation in SKBR3 cells, dot blot (4G10). Set-up: endogenous in cells; host or cells: SKBR3. Type of test: cell-based. The procedure: The ability of ZU and EB1 and their derivatives to inhibit ErbB2 activity in cellulo on a commonly used ErbB2-overexpressing breast cancer cell line SKBR3 was analyzed. SKBR3 were treated 24 h with increasing concentrations of the compounds (0.625-80 μM) and ErbB2 phosphorylation was addressed by dot blot analysis using an anti-phosphotyrosine antibody (clone 4G10). Quantifications show the result of two independent experiments.

Molecules are shown by their SMILES.

Sequence of ErbB2 (P04626 23-1255): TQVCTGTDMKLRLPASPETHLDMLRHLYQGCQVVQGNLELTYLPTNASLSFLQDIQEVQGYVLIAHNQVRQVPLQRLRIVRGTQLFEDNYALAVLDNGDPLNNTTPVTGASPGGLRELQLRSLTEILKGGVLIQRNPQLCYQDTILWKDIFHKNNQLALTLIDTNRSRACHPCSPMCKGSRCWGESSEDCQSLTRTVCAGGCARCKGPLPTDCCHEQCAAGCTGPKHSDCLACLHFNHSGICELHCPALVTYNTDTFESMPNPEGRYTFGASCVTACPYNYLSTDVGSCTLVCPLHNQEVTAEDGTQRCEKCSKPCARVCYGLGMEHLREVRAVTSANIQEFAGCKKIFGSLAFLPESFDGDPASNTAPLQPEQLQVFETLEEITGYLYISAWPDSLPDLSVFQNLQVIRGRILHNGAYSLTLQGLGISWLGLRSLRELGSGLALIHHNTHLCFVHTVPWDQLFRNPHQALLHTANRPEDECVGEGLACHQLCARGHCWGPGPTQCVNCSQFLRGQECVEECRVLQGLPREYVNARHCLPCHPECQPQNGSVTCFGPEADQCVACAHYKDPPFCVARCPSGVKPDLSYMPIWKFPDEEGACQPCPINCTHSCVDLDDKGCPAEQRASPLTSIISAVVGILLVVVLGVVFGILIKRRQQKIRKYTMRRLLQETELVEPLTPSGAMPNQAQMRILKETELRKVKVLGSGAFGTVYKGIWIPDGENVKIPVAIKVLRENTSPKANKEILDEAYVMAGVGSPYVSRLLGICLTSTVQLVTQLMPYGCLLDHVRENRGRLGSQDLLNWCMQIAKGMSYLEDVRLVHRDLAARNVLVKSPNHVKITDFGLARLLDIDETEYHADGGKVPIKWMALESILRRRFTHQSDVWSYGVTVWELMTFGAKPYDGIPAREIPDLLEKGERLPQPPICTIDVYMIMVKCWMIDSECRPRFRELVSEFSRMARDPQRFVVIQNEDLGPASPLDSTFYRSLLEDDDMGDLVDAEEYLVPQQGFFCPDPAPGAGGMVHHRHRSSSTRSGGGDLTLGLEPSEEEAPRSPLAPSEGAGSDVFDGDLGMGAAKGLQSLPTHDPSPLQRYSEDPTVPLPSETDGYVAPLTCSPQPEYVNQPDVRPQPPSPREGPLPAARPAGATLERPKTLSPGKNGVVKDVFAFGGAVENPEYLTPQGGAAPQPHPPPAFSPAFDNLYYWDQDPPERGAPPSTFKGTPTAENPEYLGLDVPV

For the compound `COc1cc2ncnc(Nc3cccc(Cl)c3)c2cc1OC` [AG1478], the “ligand-dependent ErbB2 activation induced by EGF or HRG stimulation (in words)” value in test [1] is on record as “strongly blocked”.
On to `O=c1c2ccccc2[se]n1-c1ccccc1` [EBa, reference compound], for which the “ligand-dependent ErbB2 activation induced by EGF or HRG stimulation (in words)” value in test [1] was “did not block”. Besides, at ErbB2 (SK-BR-3, SKBR3, 24 h, 0.625-80 μM, read-out: ErbB2 activation 24 h Max inhibition, %), the Emax turned out to be 15.6%. At ErbB2 (SKBR3, 24 h, read-out: ErbB2 activation 24 h EC50), the EC50 is 40.7 µM. Also, the “reduction of ErbB2 phosphorylation” value at ErbB2 (SKBR3, concentration of 10 μM) is listed as 15%.
